Assays:
[1] = tested on: γ-IFN-increased protein/DNA complex with DRα 5′-flanking region probe; assay: Gel shift (EMSA) with 137 class II probe, extracts from γ-IFN-treated FRTL-5 cells; assay type: cell-based, rat; details: for % inhibition of IFN-increased complex formation: 137 class II probe, γ-IFN-treated 5H cells
Experimental: Cells were grown in 6H medium with 5 % calf serum for 6-7 days to 70-80% confluence, then shifted to 5H medium with 5 % calf serum for 5 days. TSH (1×10^−10 M), gamma-interferon (100 U/ml), MMI (5 mM), and different concentrations of MMI derivatives or tautomeric cyclic thiones (0.0001 to 10 mM) were added as appropriate for […]. Cells were then harvested and extracts were made by a modification of a method of Dignam, J., et al. Methods in Enzymology, 101:582-598 (1983). In brief, cells were harvested by scraping after being washed twice with cold phosphate-buffer saline (PBS). Subsequently they were pelleted, washed in cold PBS and then pelleted again. The pellet was resuspended in Dignam buffer C (20 mM Hepes buffer at pH 7.9, 1.5 mM MgCl2, 0.42 M NaCl, 25% glycerol, 0.5 mM dithiotreitol (DTT), 0.5 mM phenylmethylsulfonylfluoride (PMSF), 1 […] pepstatin). The final NaCl concentration was adjusted on the basis of cell pellet volume to 0.42 M and cells were lysed by repeated cycles of freezing and thawing. Extracts were then centrifuged at 10,000×g at 4° C. for 20 min. The supernatant was recovered, aliquoted and stored at −70° C.
Cell extracts to perform class II gel shift studies were prepared exactly as for class I studies (Dignam et al., ibid, 582-598 (1983); Giuliani C, et al., J. Biol. Chem. 270: 11453-11462 (1995); Saji M, et al., J. Biol. Chem. 272: 20096-20107 (1997); Montani, V., et al., Endocrinology 139: 280-289 (1998a); Montani, V., et al., Endocrinology 139: 290-302 (1998b)), with the exception that the extracts were from γ-interferon treated cells, usually 100 U/ml interferon for 24 to 48 hours. Similarly, electrophoretic mobility shift assays (EMSA) were performed in the same way. Oligonucleotides used for EMSA were synthesized (Operon Technologies, Inc.) or were purified from 2 % agarose gels using either QIAEX (Qiagen, Chatsworth, Calif.) or Jet Sorb (Genomed) following restriction enzyme treatment of chimeric HLA-DRα-CAT constructs (Montani et al., 1998a, b). The oligonucleotides were dephosphorylated with calf intestinal alkaline phosphatase, labeled with […] or with [γ-^32P]ATP using T4 polynucleotide kinase, then purified on an 8% native polyacrylamide gel (Giuliani C, et al., ibid, 11453-11462 (1995); Saji M, et al., ibid, 20096-20107 (1997); Sambrook J, et al., ibid, 2:11.23-11.44 (1989); Montani, V., et al., ibid, 280-289 (1998a), 290-302 (1998b)).
Binding reactions for class II EMSA used similar conditions as well. They were carried out in a volume of 20 μl for 30 min at room temperature. The reaction mixtures contained 1.5 fmol of [^32P]DNA, 3 μg cell extract and 1.5 to 3 μg poly(di-dC) in 10 mM Tris-Cl at pH 7.9, 1 mM MgCl2, 1 mM DTT, 1 mM EDTA, and 5% glycerol. Where indicated, unlabeled double- or single-stranded oligonucleotides were added to the binding reaction as competitors and incubated with the extract for 20 min at room temperature prior to the addition of labeled DNA. Similarly, in experiments using antiserum, extracts were also incubated in the same buffer containing antiserum or normal rabbit serum for 20 min at room temperature before being processed as above. Following incubations, reaction mixtures were subjected to electrophoresis on 3.5 or 5 % native polyacrylamide gels at 160 V in 0.5xTBE, at room temperature, for 1.5 to 2 h. Gels were dried and autoradiographed at -80° C overnight unless otherwise noted.
FIG. 7 depicts the effect of MMI on the ability of γ-IFN to increase the formation of protein/DNA complexes with the […] DR α5′-flanking region probe. The radiolabeled probe is the same as that used and diagrammatically presented in FIG. 6; it contains −137 bp to +45 bp of the 5′-flanking region of DRα-CAT chimera. Extracts were from FRTL-5 rat thyroid cells grown to near confluency in TSH, maintained 6 days in SH medium, then treated with 100 U/ml γ-IFN, 5 mM MMI, or both for the last 48 h before the experiment was terminated. […]

[2] = tested on: Y box protein (TSEP-1) RNA; assay: Northern analysis of Y box protein (TSEP-1) RNA levels in FRTL-5 cells; assay type: cell-based, rat; details: 40 hours
Excerpt: Whereas γ-IFN decreases Y box protein RNA levels in FRTL-5 cells, MMI can reverse this action (FIG. 16). […] The rat TSEP-1 probe was the clone 31 insert, residues 5 to 1395 of the rat TSEP-1 nucleotide sequence reported (Ohmori, M., et al., ibid (1996)); rat β-actin was kindly provided by Dr. B. Paterson (NCI, Bethesda, Md.). Radiolabeling of all probes, hybridization (0.5-1.0×10^6cpm/ml), and washing were as described (Isozaki, O., et al., ibid (1989); Saji, M., et al., ibid (1992); Ohmori, M., et al., ibid (1996)).
The ability of the compounds to reverse the γ-IFN-induced decrease in TSEP-1 RNA levels is once again 10>11>7 or 8>2>MMI>3. This mimics data in all other assays.

## Cn1c(-c2ccccc2)cnc1S [Compound 10, 5-Phenylmethimazole]
[1]; 10 μM
  % inhibition of IFN-increased complex formation: 35 ± 15%
[1]; 100 μM
  % inhibition of IFN-increased complex formation: 78 ± 10%
[1]; 1 mM
  % inhibition of IFN-increased complex formation: 95 ± 16%
[2]; 100 μM compound + γIFN
  Y box protein (TSEP-1) RNA level, compound +γIFN: 183 ± 12%
[2]; 100 μM compound alone
  Y box protein (TSEP-1) RNA level, compound ALONE: 124 ± 4%
[2]; 1 mM compound + γIFN
  Y box protein (TSEP-1) RNA level, compound +γIFN: 178 ± 10%
[2]; 1 mM compound alone
  Y box protein (TSEP-1) RNA level, compound ALONE: 122 ± 8%

## Sc1nc2ccccc2[nH]1 [Compound 4, 2-Mercaptobenzimidazole]
[1]; 10 μM
  % inhibition of IFN-increased complex formation: 0%
[1]; 100 μM
  % inhibition of IFN-increased complex formation: 5%
[1]; 1 mM
  % inhibition of IFN-increased complex formation: 65 ± 15%
[1]; 5 mM
  % inhibition of IFN-increased complex formation: Insol

## CSc1nccn1C [Compound 7, S-Methylmethimazole]
[1]; 10 μM
  % inhibition of IFN-increased complex formation: 0%
[1]; 100 μM
  % inhibition of IFN-increased complex formation: 16 ± 11%
[1]; 1 mM
  % inhibition of IFN-increased complex formation: 74 ± 13%
  suppression of interferon-induced class II protein/DNA complexes compared with MMI (FIG. 8): significantly more effective suppressors than MMI
[2]; 100 μM compound + γIFN
  Y box protein (TSEP-1) RNA level, compound +γIFN: 83 ± 10%
[2]; 100 μM compound alone
  Y box protein (TSEP-1) RNA level, compound ALONE: 111 ± 16%
[2]; 1 mM compound + γIFN
  Y box protein (TSEP-1) RNA level, compound +γIFN: 133 ± 15%
[2]; 1 mM compound alone
  Y box protein (TSEP-1) RNA level, compound ALONE: 108 ± 4%

## O=[N+]([O-])c1ccc2[nH]c(S)nc2c1 [Compound 5, 2-Mercapto-5-nitrobenzimidazole]
[1]; 10 μM
  % inhibition of IFN-increased complex formation: 0%
[1]; 100 μM
  % inhibition of IFN-increased complex formation: 0%
[1]; 1 mM
  % inhibition of IFN-increased complex formation: 45 ± 21%
[1]; 5 mM
  % inhibition of IFN-increased complex formation: Insol

## Cn1ccn(C)c1=S [Compound 8, N-Methylmethimazole]
[1]; 10 μM
  % inhibition of IFN-increased complex formation: 0%
[1]; 100 μM
  % inhibition of IFN-increased complex formation: 21 ± 18%
[1]; 1 mM
  % inhibition of IFN-increased complex formation: 86 ± 14%
  suppression of interferon-induced class II protein/DNA complexes compared with MMI (FIG. 8): significantly more effective suppressors than MMI
[2]; 100 μM compound + γIFN
  Y box protein (TSEP-1) RNA level, compound +γIFN: 77 ± 6%
[2]; 100 μM compound alone
  Y box protein (TSEP-1) RNA level, compound ALONE: 119 ± 13%
[2]; 1 mM compound + γIFN
  Y box protein (TSEP-1) RNA level, compound +γIFN: 148 ± 12%
[2]; 1 mM compound alone
  Y box protein (TSEP-1) RNA level, compound ALONE: 115 ± 5%

## Sc1ncc[nH]1 [Compound 3, 2-Mercaptoimidazole]
[1]; 10 μM
  % inhibition of IFN-increased complex formation: 0%
[1]; 100 μM
  % inhibition of IFN-increased complex formation: 0%
[1]; 1 mM
  % inhibition of IFN-increased complex formation: 0%
[1]; 5 mM
  % inhibition of IFN-increased complex formation: 0%
[2]; 100 μM compound + γIFN
  Y box protein (TSEP-1) RNA level, compound +γIFN: 42 ± 11%
[2]; 100 μM compound alone
  Y box protein (TSEP-1) RNA level, compound ALONE: 102 ± 7%
[2]; 1 mM compound + γIFN
  Y box protein (TSEP-1) RNA level, compound +γIFN: 42 ± 5%
[2]; 1 mM compound alone
  Y box protein (TSEP-1) RNA level, compound ALONE: 94 ± 6%
[2]; 5 mM compound + γIFN
  Y box protein (TSEP-1) RNA level, compound +γIFN: 47 ± 4%
[2]; 5 mM compound alone
  Y box protein (TSEP-1) RNA level, compound ALONE: 100 ± 8%

## Cn1ccnc1S [Compound 1, 1-Methylimidazole-2-thiol]
[1]; 10 μM
  % inhibition of IFN-increased complex formation: 0%
[1]; 100 μM
  % inhibition of IFN-increased complex formation: 0%
[1]; 1 mM
  % inhibition of IFN-increased complex formation: 10 ± 5%
[1]; 5 mM
  % inhibition of IFN-increased complex formation: 85 ± 12%
[2]; 100 μM compound + γIFN
  Y box protein (TSEP-1) RNA level, compound +γIFN: 42 ± 7%
[2]; 100 μM compound alone
  Y box protein (TSEP-1) RNA level, compound ALONE: 105 ± 8%
[2]; 1 mM compound + γIFN
  Y box protein (TSEP-1) RNA level, compound +γIFN: 87 ± 7%
[2]; 1 mM compound alone
  Y box protein (TSEP-1) RNA level, compound ALONE: 104 ± 12%
[2]; 5 mM compound + γIFN
  Y box protein (TSEP-1) RNA level, compound +γIFN: 149 ± 12%
[2]; 5 mM compound alone
  Y box protein (TSEP-1) RNA level, compound ALONE: 115 ± 9%

## Cc1cnc(S)n1C [Compound 9, 5-Methylmethimazole]
[1]; 10 μM
  % inhibition of IFN-increased complex formation: 0%
[1]; 100 μM
  % inhibition of IFN-increased complex formation: 0%
[1]; 1 mM
  % inhibition of IFN-increased complex formation: 25 ± 15%
[1]; 5 mM
  % inhibition of IFN-increased complex formation: 40 ± 20%

## Cc1ncc([N+](=O)[O-])n1CCO [Compound 2, 2-Methyl-5-nitro-1-imidazole ethanol]
[1]; 10 μM
  % inhibition of IFN-increased complex formation: 0%
[1]; 100 μM
  % inhibition of IFN-increased complex formation: 0%
[1]; 1 mM
  % inhibition of IFN-increased complex formation: 55 ± 14%
  suppression of interferon-induced class II protein/DNA complexes compared with MMI (FIG. 8): significantly more effective suppressors than MMI
[1]; 5 mM
  % inhibition of IFN-increased complex formation: 95 ± 10%
[2]; 100 μM compound + γIFN
  Y box protein (TSEP-1) RNA level, compound +γIFN: 43 ± 6%
[2]; 100 μM compound alone
  Y box protein (TSEP-1) RNA level, compound ALONE: 104 ± 4%
[2]; 1 mM compound + γIFN
  Y box protein (TSEP-1) RNA level, compound +γIFN: 126 ± 9%
[2]; 1 mM compound alone
  Y box protein (TSEP-1) RNA level, compound ALONE: 106 ± 11%
[2]; 5 mM compound + γIFN
  Y box protein (TSEP-1) RNA level, compound +γIFN: 163 ± 15%
[2]; 5 mM compound alone
  Y box protein (TSEP-1) RNA level, compound ALONE: 112 ± 4%

## Cc1ccc2[nH]c(S)nc2c1 [Compound 6, 2-Mercapto-5-methylbenzimidazole]
[1]; 10 μM
  % inhibition of IFN-increased complex formation: 0%
[1]; 100 μM
  % inhibition of IFN-increased complex formation: 0%
[1]; 1 mM
  % inhibition of IFN-increased complex formation: 35 ± 18%
[1]; 5 mM
  % inhibition of IFN-increased complex formation: Insol

B1: γ-IFN: rat recombinant γ-interferon, 100 U/ml, used to increase MHC class I and class II expression in FRTL-5 cells (protein, UniProt P01581 23-156, looked up)
Interferon gamma: QGTLIESLESLKNYFNSSSMDAMEGKSLLLDIWRNWQKDGNTKILESQIISFYLRLFEVLKDNQAISNNISVIESHLITNFFSNSKAKKDAFMSIAKFEVNNPQIQHKAVNELIRVIHQLSPESSLRKRKRSRC
[2]; γ-IFN alone, 100 Units/ml
  Y box protein (TSEP-1) RNA level +γIFN, % Control: 45 ± 6%
